The subject of one data set is TNF-alpha. The experiment in a line: TNF-alpha production in LPS-challenged mice, assayed by ELISA. The class given is in vivo. Particulars: Mus musculus, inhibition of TNF-alpha production, formulated in FS-1, oral gavage; for inhibition at 10 mg/kg: 10 mpk P.O. An excerpt:
Mice were challenged with LPS to produce TNF-alpha in vivo, and then assayed by ELISA after dosing with or without the TNF-alpha inhibitor (formulated in FS-1 and delivered through oral gavage).

Data set [1] in a line: Metabolite identification in plasma after p.o. administration to mice. Details: species or system Balb/c mice. Conditions: in vivo in plasma after p.o. administration of 10 mg/kg to mice. As for the experimental part:
Female Balb/c mice (Charles River) were housed under standard conditions with free access to food and drinking water throughout the experiment. The mice (n=4) were treated perorally with 10 mg/kg NVP-VAQ996-NX-1 (at 5 mL/kg) by gavage. At the allotted time points mice blood samples were obtained into heparinized tubes (30 IU/mL). The liver was removed intact, weighed and snap frozen before storage at −70° C. until analyzed.
(§1) For protein precipitation, to 100 μL plasma 100 μL ice-cold acetonitrile was added. This procedure was repeated twice during 1 hour and, after centrifugation (10000 g, 5 min), the supernatant was used for further preparation.
(§2) The solvent of the supernatant was evaporated using the Cyclone high speed evaporator (Prolab, Reinach, Switzerland) and the residue reconstituted with water/acetonitrile (95/5; v/v). An aliquot of the final solution was used for the high performance liquid chromatography/mass spectrometry (HPLC/MS) analyses.
(§3) The liquid chromatographic separation was performed using an Chorus-220 syringe pump (CS analytics, Beckenried, Switzerland) and a home-made glass capillary column, 150 mm×0.3 mm, filled with Nucleosil C18-HD, particle size 3.5 μm Gradient mobile phase programming was used with a flow rate of 4.5 μL/min. Eluent A was acetonitrile/water (5/95) 10 mM HCOONH4+0.02% trifluoroacetic acid (TFA). […]

Data set [2] in a line: In vitro incubation with liver microsomes of human, metabolite characterisation by HPLC/MS. The class given is in vitro ADME. As for the experimental part: (§4) Stock solutions of NVP-VAQ996-NX-1 (2 mmol/L) were prepared in DMSO. Alamethicin solution was prepared (0.125 mmol/L) in water. Uridine 5′-diphosphoglucuronic acid (UDPGA) solution (24 mmol/L) was prepared in phosphate buffer 100 mM pH 7.4. In a further experiment 50 mmol/L gluthationic acid reduced (GSH) in phosphate buffer 100 mM pH 7.4 was added as second co-factor.
(§5) For the characterization of in vitro metabolites NVP-VAQ996-NX-1 was incubated at 37° C. for up to 60 minutes with liver microsomes from mouse and human (Table 3).
(§6) 3 μL liver microsomes, containing 20 mg protein/mL, were mixed with 417 μL phosphate buffer, 60 μL alamethicin solution and 60 μL UDPGA. To this reaction mixture 3 μL stock solution (2 mM in DMSO) of NVP-VAQ996-NX-1 was added and pre-incubated for 3 min at 37° C. After pre-incubation, the final reaction was started by addition of 60 μL of the nicotinamide-adenine-dinucleotide-phosphate (NADPH)-regenerating system, containing isocitrate-dehydrogenase (TU/mL), NADP (1 mmol/L), isocitrate (5 mmol/L). After 1 h, the reaction was stopped with 600 μL ice-cold acetonitrile. Experiments were conducted according to a generic protocol. The reaction mixture was stored at −80° C. The final set-up of the in vitro incubation is shown on Table 4.
(§7) Prior to use, the mixture was centrifuged (10000 g, 5 min) and 500 μL of 1 mL supernatant evaporated to dryness. […]
On the technique in general: Liver microsomes are vesicles of endoplasmic reticulum, rich in cytochrome P450 enzymes.

Data set [3] is described as follows: In vitro incubation in plasma from mice. Conditions: heparinized mouse plasma, 5 μg/ml, 2 or 24 hrs at 37° C. The class given is in vitro ADME, Balb/c mice. As for the experimental part: Heparinized mouse plasma was freshly obtained from Balb/c mice. Samples were incubated with 5 μg/ml NVP-VAQ996 added from a stock solution (1 mg/ml) in DMSO for 2 or 24 hrs at 37° C.
as §1, §2
as §3, with “(TFA). Eluent B was acetonitrile/methanol/water (9/5/5)+10 mM HCOONH4+0.02% TFA. The mobile phase was held 2 min. isocratic at 5% B, followed by a linear gradient from 15% B to 95% B over 30 min and a 5 min isocratic phase at 95% B. The column temperature was kept at 40° C.” for “(TFA).”

A short description of data set [4]: In vitro incubation with liver microsomes of mouse, metabolite characterisation by HPLC/MS. In kind it is in vitro ADME. As to the method: as §4, §5, §6, §7

Compound `CCOC(=O)c1c(N2CCNCC2)c2ccccc2n(Cc2ccc(F)cc2)c1=O` [Compound 101] returned an inhibition at 10 mg/kg in the data set with TNF-alpha of 43.4%.

`N#Cc1c(N2CCNCC2)c2ccccc2n(CC(=O)c2ccccc2)c1=O` [Compound 102] yielded an inhibition at 10 mg/kg in the data set with TNF-alpha of 36.5%.

Turning to `Cc1ccc2c(c1)c(N1CCNCC1)c(C#N)c(=O)n2CC(=O)c1ccccc1` [Compound 103], in the data set on TNF-alpha, the inhibition at 10 mg/kg came out at 67.3%.

`Cc1ccc2c(c1)c(N1CCNCC1)c(C#N)c(=O)n2C` [Compound 105] came in with an inhibition at 10 mg/kg in the data set with TNF-alpha of 21%.

The compound `Cn1c(=O)c([N+](=O)[O-])c(N2CCNCC2)c2ccccc21` [Compound 108] returned an inhibition at 10 mg/kg in the data set on TNF-alpha of 26.2%.

Consider `CCOC(=O)c1c(N2CCNCC2)c2sccc2n(Cc2cccc(F)c2)c1=O` [Compound 113], for which the inhibition at 3 mg/kg in the data set on TNF-alpha (3 mg/kg P.O., read-out: % Inhibition (tested at 3 mg/kg)) is 84.1%.

For the compound `Cc1ccc2c(c1)c(N1CCN(C)CC1)c(C#N)c(=O)n2CC(=O)c1ccccc1` [Compound 114], in the data set with TNF-alpha, the inhibition at 10 mg/kg was found to be 51.6%.

Turning to `CC(=O)N1CCN(c2c(C#N)c(=O)n(CC(=O)c3ccccc3)c3ccc(C)cc23)CC1` [Compound 115], the inhibition at 10 mg/kg in the data set on TNF-alpha came out at 41.3%.

For the compound `CN1CCN(c2c(C#N)c(=O)n(CC(=O)c3ccccc3)c3ccccc23)CC1` [Compound 116], the inhibition at 10 mg/kg in the data set on TNF-alpha came to 29.4%.

With `N#Cc1c(N2CCN(C(=O)c3cccs3)CC2)c2ccccc2n(CC(=O)c2ccccc2)c1=O` [NVP-VAQ996-NX], the main metabolite entry in data set [1], in data set [2] (after in vitro incubation with liver microsomes of human) and in data set [4] (after in vitro incubation with liver microsomes of mouse) was “NVP-VAR235-NX” in each case. In addition, the “metabolic degradation with liver microsomes” value is given as “high” in data set [2] (human liver microsomes 0.1 mg/ml, 5 μM, 37° C., up to 60 min) and “high” in data set [4] (mouse liver microsomes 0.1 mg/ml, 5 μM, 37° C., up to 60 min). In data set [3], the “rate of degradation to metabolite ml in plasma” value was “high”.
